Counter-ions that a name gives are not always drawn.

The target in the assay is T1, MAPKAPK2 enzyme (HIS-MK2, Invitrogen PV4019) (Homo sapiens, UniProt P49137).
T1 construct: His; purchased Invitrogen PV4019
T1 sequence (P49137 whole entry): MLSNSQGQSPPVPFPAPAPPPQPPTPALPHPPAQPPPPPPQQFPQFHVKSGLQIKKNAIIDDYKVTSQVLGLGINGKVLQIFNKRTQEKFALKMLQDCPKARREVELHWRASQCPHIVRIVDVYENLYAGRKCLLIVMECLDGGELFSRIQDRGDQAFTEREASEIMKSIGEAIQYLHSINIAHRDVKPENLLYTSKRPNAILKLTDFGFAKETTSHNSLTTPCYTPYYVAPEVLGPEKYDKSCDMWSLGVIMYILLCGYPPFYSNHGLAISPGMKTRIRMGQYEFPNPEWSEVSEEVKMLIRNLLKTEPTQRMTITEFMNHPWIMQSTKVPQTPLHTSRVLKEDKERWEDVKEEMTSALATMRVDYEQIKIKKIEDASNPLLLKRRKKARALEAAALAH
Kind of assay: Alternative MAPKAPK2 assay (Caliper microfluidic mobility shift, HSP27-peptide). The format is biochemical. As to conditions: HIS-MK2 0.013 nM, ATP 10 μM, 60 min at 30° C.
Turning to `O=C1NCC2(CNC2)c2[nH]c3c(c21)CCc1cnc(-c2ccc(F)nc2)cc1-3` [Example 160, 2-(3-Aminomethyl-azetidin-3-yl)-8-(6-fluoro-pyridin-3-yl)-4,5-dihydro-1H-pyrrolo[2,3-f]isoquinoline-3-carboxylic acid lactam hydrochloride], the IC50 (usually the concentration at which inhibition is half-maximal) was less than 3 nM.

`CN1CC2(CNC(=O)c3c4c(n(C)c32)-c2cc(-c3ccc(F)nc3)ncc2CC4)C1` [Example 161, 2-(3-Aminomethyl-1-methyl-azetidin-3-yl)-8-(6-fluoro-pyridin-3-yl)-1-methyl-4,5-dihydro-1H-pyrrolo[2,3-f]isoquinoline-3-carboxylic acid lactam]: the IC50 stood at 86 nM. For `Cn1c2c(c3c1C1(CNC1)CNC3=O)CCc1cnc(-c3ccc(F)nc3)cc1-2` [Example 162, 2-(3-Aminomethyl-azetidin-3-yl)-8-(6-fluoro-pyridin-3-yl)-1-methyl-4,5-dihydro-1H-pyrrolo[2,3-f]isoquinoline-3-carboxylic acid lactam hydrochloride], the IC50 turned out to be 20 nM. Consider `COc1ccc(-c2cc3c(cn2)CCc2c4c(n(C)c2-3)C2(CNC2)CNC4=O)cc1` [Example 163, 2-(3-Aminomethyl-azetidin-3-yl)-8-(4-methoxy-phenyl)-1-methyl-4,5-dihydro-1H-pyrrolo[2,3-f]isoquinoline-3-carboxylic acid lactam hydrochloride], for which the IC50 turned out to be 6 nM. As to `COc1ccc(-c2cc3c(cn2)CCc2c4c(n(C)c2-3)C2(CNC4=O)CN(C)C2)cc1` [Example 164, 2-(3-Aminomethyl-1-methyl-azetidin-3-yl)-8-(4-methoxy-phenyl)-1-methyl-4,5-dihydro-1H-pyrrolo[2,3-f]isoquinoline-3-carboxylic acid lactam], the IC50 amounted to 22 nM. Regarding `COc1ccc(-c2cc3c(cn2)CCc2c-3[nH]c3c2C(=O)NCC32CNC2)cc1` [Example 165, 2-(3-Aminomethyl-azetidin-3-yl)-8-(4-methoxy-phenyl)-4,5-dihydro-1H-pyrrolo[2,3-f]isoquinoline-3-carboxylic acid lactam hydrochloride], the IC50 was less than 3 nM. With `O=C1NC2(CC2)C2(CNC2)c2[nH]c3c(c21)CCc1cnc(-c2cccc(F)c2)cc1-3` [Example 180, 2-[3-(1-Amino-cyclopropyl)-azetidin-3-yl]-8-(3-fluoro-phenyl)-4,5-dihydro-1H-pyrrolo[2,3-f]isoquinoline-3-carboxylic acid lactam hydrochloride], the IC50 was less than 3 nM. In the case of `COCCN1CC2(CNC(=O)c3c2[nH]c2c3CCc3cnc(-c4cccc(Cl)c4)cc3-2)C1` [Example 181, 2-[3-Aminomethyl-1-(2-methoxy-ethyl)-azetidin-3-yl]-8-(3-chloro-phenyl)-4,5-dihydro-1H-pyrrolo[2,3-f]isoquinoline-3-carboxylic acid lactam], the IC50 was found to be 79 nM. Under `CC(C)Oc1ccc(-c2cc3c(cn2)CCc2c4c(n(C)c2-3)C2(CNC4=O)CN(C)C2)cn1` [Example 183, 2-(3-Aminomethyl-1-methyl-azetidin-3-yl)-8-(6-isopropoxy-pyridin-3-yl)-1-methyl-4,5-dihydro-1H-pyrrolo[2,3-f]isoquinoline-3-carboxylic acid lactam] stands 9 nM. In the case of `CC(C)Oc1ccc(-c2cc3c(cn2)CCc2c4c(n(C)c2-3)C2(CNC2)CNC4=O)cn1` [Example 184, 2-(3-Aminomethyl-azetidin-3-yl)-8-(6-isopropoxy-pyridin-3-yl)-1-methyl-4,5-dihydro-1H-pyrrolo[2,3-f]isoquinoline-3-carboxylic acid lactam hydrochloride], the concentration for half-maximal inhibition (IC50) is 9 nM. In the case of `CC(C)Oc1ccc(-c2cc3c(cn2)CCc2c-3[nH]c3c2C(=O)NCC32CNC2)cn1` [Example 186, 2-(3-Aminomethyl-azetidin-3-yl)-8-(6-isopropoxy-pyridin-3-yl)-4,5-dihydro-1H-pyrrolo[2,3-f]isoquinoline-3-carboxylic acid lactam hydrochloride] it was less than 3 nM; in that of `CN1CC2(CNC(=O)c3c2[nH]c2c3CCc3cnc(-c4cccc(Cl)c4)cc3-2)C1` [Example 188, 2-[3-Aminomethyl-1-methyl-azetidin-3-yl]-8-(3-chloro-phenyl)-4,5-dihydro-1H-pyrrolo[2,3-f]isoquinoline-3-carboxylic acid lactam], less than 3 nM. For `Cn1c2c(c3c1C1(CNC1)CNC3=O)CCc1cnc(-c3cccc(Cl)c3)cc1-2` [Example 189, 2-[3-Aminomethyl-azetidin-3-yl]-8-(3-chloro-phenyl)-1-methyl-4,5-dihydro-1H-pyrrolo[2,3-f]isoquinoline-3-carboxylic acid lactam hydrochloride], the concentration for half-maximal inhibition (IC50) came to 6 nM. For the compound `CN1CC2(CNC(=O)c3c4c(n(C)c32)-c2cc(-c3cccc(Cl)c3)ncc2CC4)C1` [Example 190, 2-[3-Aminomethyl-1-methyl-azetidin-3-yl]-8-(3-chloro-phenyl)-1-methyl-4,5-dihydro-1H-pyrrolo[2,3-f]isoquinoline-3-carboxylic acid lactam], the concentration for half-maximal inhibition (IC50) was found to be 7 nM.

With `Cc1ccc(-c2cc3c(cn2)CCc2c-3[nH]c3c2C(=O)NC2(CC2)C32CC2)cn1` [Example 193, 2-(1′-Amino-bicyclopropyl-1-yl)-8-(6-methyl-pyridin-3-yl)-4,5-dihydro-1H-pyrrolo[2,3-f]isoquinoline-3-carboxylic acid lactam], the half-inhibitory concentration (IC50) was determined as 12 nM. In the case of `COc1ncc(-c2cc3c(cn2)CCc2c-3[nH]c3c2C(=O)NC2(CC2)C32CC2)cc1F` [Example 194, 2-(1′-Amino-bicyclopropyl-1-yl)-8-(5-fluoro-6-methoxy-pyridin-3-yl)-4,5-dihydro-1H-pyrrolo[2,3-f]isoquinoline-3-carboxylic acid lactam] it was 42 nM. For the compound `CN(C)c1ccc(-c2cc3c(cn2)CCc2c-3[nH]c3c2C(=O)NC2(CC2)C32CC2)cn1` [Example 197, 2-(1′-Amino-bicyclopropyl-1-yl)-8-(6-dimethylamino-pyridin-3-yl)-4,5-dihydro-1H-pyrrolo[2,3-f]isoquinoline-3-carboxylic acid lactam], the IC50 was found to be 38 nM.

With `O=C1NC2(CC2)C2(CC2)c2[nH]c3c(c21)CCc1cnc(-c2ccc(OC4CCOCC4)nc2)cc1-3` [Example 198, 2-(1′-Amino-bicyclopropyl-1-yl)-8-[6-(tetrahydro-pyran-4-yloxy)-pyridin-3-yl]-4,5-dihydro-1H-pyrrolo[2,3-f]isoquinoline-3-carboxylic acid lactam], the IC50 is 20 nM. On to `COc1ccc(-c2cc3c(cn2)CCc2c-3[nH]c3c2C(=O)NC2(CC2)C32CC2)cn1` [Example 199, 2-(1′-Amino-bicyclopropyl-1-yl)-8-[6-methoxy-pyridin-3-yl]-4,5-dihydro-1H-pyrrolo[2,3-f]isoquinoline-3-carboxylic acid lactam], for which the IC50 was 23 nM.

Turning to `CC(C)Oc1ccc(-c2cc3c(cn2)CCc2c-3[nH]c3c2C(=O)NC2(CC2)C32CC2)cn1` [Example 200, 2-(1′-Amino-bicyclopropyl-1-yl)-8-[6-isopropoxy-pyridin-3-yl]-4,5-dihydro-1H-pyrrolo[2,3-f]isoquinoline-3-carboxylic acid lactam], the IC50 was determined as 37 nM. For the compound `Cn1c2c(c3c1C1(CNC1)CNC3=O)CCc1cnc(-c3cccc(F)c3)nc1-2` [Example 203, 2-(3-Aminomethyl-azetidin-3-yl)-8-(3-fluoro-phenyl)-1-methyl-4,5-dihydro-1H-1,7,9-triaza-cyclopenta[a]naphthalene-3-carboxylic acid lactam hydrochloride], the IC50 was 34 nM. Consider `CN1CC2(CNC(=O)c3c4c(n(C)c32)-c2nc(-c3cccc(F)c3)ncc2CC4)C1` [Example 204, 2-(3-Aminomethyl-1-methyl-azetidin-3-yl)-8-(3-fluoro-phenyl)-1-methyl-4,5-dihydro-1H-1,7,9-triaza-cyclopenta[a]naphthalene-3-carboxylic acid lactam], for which the IC50 was found to be 22 nM. Under `O=C1NCC2(CNC2)c2[nH]c3c(c21)CCc1cnc(-c2ccc(F)nc2F)cc1-3` [Example 205, 2-(3-Aminomethyl-azetidin-3-yl)-8-(2,6-difluoro-pyridin-3-yl)-4,5-dihydro-1H-pyrrolo[2,3-f]isoquinoline-3-carboxylic acid lactam hydrochloride] stands less than 3 nM; under `COc1ccc(-c2ncc3c(n2)-c2[nH]c4c(c2CC3)C(=O)NCC42CNC2)cc1` [Example 206, 2-(3-Aminomethyl-azetidin-3-yl)-8-(4-methoxy-phenyl)-4,5-dihydro-1H-1,7,9-triaza-cyclopenta[a]naphthalene-3-carboxylic acid lactam hydrochloride], less than 3 nM; under `CN1CC2(C1)c1[nH]c3c(c1C(=O)NC21CC1)CCc1cnc(-c2cccc(F)c2)cc1-3` [Example 208, 2-[3-(1-Amino-cyclopropyl)-1-methyl-azetidin-3-yl]-8-(3-fluoro-phenyl)-4,5-dihydro-1H-pyrrolo[2,3-f]isoquinoline-3-carboxylic acid lactam], less than 3 nM. For the compound `Cn1c2c(c3c1C1(CNC1)C1(CC1)NC3=O)CCc1cnc(-c3cccc(F)c3)cc1-2` [Example 209, 2-[3-(1-Amino-cyclopropyl)-azetidin-3-yl]-8-(3-fluoro-phenyl)-1-methyl-4,5-dihydro-1H-pyrrolo[2,3-f]isoquinoline-3-carboxylic acid lactam hydrochloride], the IC50 was 3 nM.

For `CN1CC2(C1)c1c(c3c(n1C)-c1cc(-c4cccc(F)c4)ncc1CC3)C(=O)NC21CC1` [Example 210, 2-[3-(1-Amino-cyclopropyl)-1-methyl-azetidin-3-yl]-8-(3-fluoro-phenyl)-1-methyl-4,5-dihydro-1H-pyrrolo[2,3-f]isoquinoline-3-carboxylic acid lactam], the IC50 was determined as 45 nM. In the case of `O=C1NC2(CC2)C2(CNC2)c2[nH]c3c(c21)CCc1cnc(-c2ccc(C(F)(F)F)nc2)cc1-3` [Example 211, 2-[3-(1-Amino-cyclopropyl)-azetidin-3-yl]-8-(6-trifluoromethyl-pyridin-3-yl)-4,5-dihydro-1H-pyrrolo[2,3-f]isoquinoline-3-carboxylic acid lactam hydrochloride], the IC50 was less than 3 nM.

For the origin of these results see US7838674B2, “Tetracyclic lactame derivatives” (Novartis AG, priority 2007, dated 2010).
